From patent US20150189876A1, “CROP ENHANCEMENT COMPOSITIONS” (Syngenta Participations AG, priority 2012, published 2015)
Read-outs that look alike come from different tables or passages of the source.

Legend:
Tetranychus urticae = experiment: Leaf disc spray test, 24-well plate, mortality after 6 days (Table 2.2); assay type: in vivo
Experimental: 2.3 Tetranychus urticae (Two-Spotted Spider Mite)
Bean leaf discs were placed on agar in 24-well microtiter plates sprayed with test solutions. After drying, the leaf discs were infested with a mite population of mixed ages. After an incubation period of 6 days, samples were checked for larval mortality, and adult mortality.

Heliothis virescens = experiment: Egg and larval mortality on artificial diet, 24-well plate, 4 days; assay type: in vivo
Experimental: 2.1 Heliothis virescens (Tobacco Budworm)
Eggs (0-24 h old) were placed in a 24-well microtiter plate on artificial diet and treated with test solutions by pipetting. After an incubation period of 4 days, samples were checked for egg mortality and larval mortality.

Myzus persicae = experiment: Leaf disc spray test, 24-well plate, mortality after 6 days (Table 2.3); assay type: in vivo
Experimental: 2.2 Myzus persicae (Green Peach Aphid)
Sunflower leaf discs were placed on agar in a 24-well microtiter plate and sprayed with test solutions. After drying, the leaf discs were infested with an aphid population of mixed ages. After an incubation period of 6 days, samples were checked for mortality.

Pyrenophora teres = experiment: In vitro antifungal checkerboard test, fungal growth by OD450 in 96-well microtiter plates; assay type: cell-based; conditions: for Sedaxane Inhibition (%): Sedaxane alone
Experimental: (§1) In vitro antifungal activity of fungicides in combination with a compound of formula (II) was evaluated in 96 well-microtiter plate system using the checkerboard method (Vitale, R. G, Afeltra, J., and Dannaoui, E. 2005: Methods in Molecular Medicine, Vol. 118, Antifungal Agents: Methods and Protocols p. 143-152). Active ingredients were two-fold serially diluted in DMSO and mixed with double strength Potato Dextrose Broth or Alkyl Ester agar (AE medium, Miguez, M., Reeve, C., Wood, P. M. and Hollomon, D. W. (2004), Alternative oxidase reduces the sensitivity of Mycosphaerella graminicola to QOI fungicides. Pest. Manag. Sci., 60: 3-7) before filled into wells according to the checkerboard format. Each dilution well containing was inoculated with fungal spore suspension to receive a final concentration of 1×10^4 spores/ml per well. Wells of last column containing only medium and spore suspension were included as control. Three replicated microtiter plates were used in each test system. Fungal growth in each well of the micro-plates was assessed spectrophotometrically at OD450 nm (16-scan point spectrophotometer, Tecan) after inoculation [OD(0 h)=background value] and after an incubation period of 72 h [OD(72 h)] at 25° C. in the dark. Fungal growth was described as increase in OD450 nm during the time interval from 0 h to 72 h [OD(72 h)-OD(0 h)]. Fungal growth in each well of the micro-plates was assessed spectrophotometrically at OD450 nm (16-scan point spectrophotometer, Tecan) after inoculation and after an incubation period of 3-6 days at 25° C. in the dark. Fungal growth was described as increase in OD450 nm during incubation period.

Fusarium culmorum = experiment: as above; assay type: cell-based
Experimental: as §1

Aspergillus parasiticus = experiment: as above; assay type: cell-based; conditions: for Azoxystrobin Inhibition (%): Azoxystrobin alone
Experimental: as §1

[1] = test system: Fusarium culmorum; Aspergillus parasiticus; Pyrenophora teres; experiment: In vitro antifungal checkerboard test, overall statement on Tables 1.1 to 1.5; assay type: cell-based
Experimental: as §1

[2] = Formula (II) 0.000003 ppm alone
[3] = Compound II alone, read-out: Compound II Inhibition (%)
[4] = Tebuconazole alone, read-out: Tebuconazole Inhibition (%)
[5] = Thiabendazole alone, read-out: Thiabendazole Inhibition (%)
[6] = Prothioconazole alone, read-out: Prothioconazole Inhibition (%)

Cc1c(F)c(F)c(COC(=O)[C@@H]2[C@H](/C=C(\Cl)C(F)(F)F)C2(C)C)c(F)c1F (racemic) [Tefluthrin, tefluthrin, reference compound]
% control (average of 2 reps) (Tetranychus urticae; Tefluthrin 100 ppm alone): 90%
% control (average of 2 reps) (Heliothis virescens; Tefluthrin 100 ppm alone): 95%

O=[N+]([O-])NC1=NCCN1Cc1ccc(Cl)nc1 [Imidacloprid, imidacloprid, reference compound]
% control (average of 2 reps) (Myzus persicae; Imidacloprid 1.6 ppm alone): 100%
% control (average of 2 reps) (Heliothis virescens; Imidacloprid 200 ppm alone): 100%

CC1=C[C@H](O/C=C2/C(=O)NC3c4ccccc4CC23)OC1=O (some centres unmarked) [Compound II]
% control (average of 2 reps) (Tetranychus urticae; [2]): 0%
% control (average of 2 reps) (Tetranychus urticae; Formula (II) 0.0003 ppm alone): 0%
% control (average of 2 reps) (Tetranychus urticae; Formula (II) 0.03 ppm alone): 0%
% control (average of 2 reps) (Tetranychus urticae; Formula (II) 1 ppm alone): 0%
antagonism of the activity of the insecticides (Tetranychus urticae; mixtures of Table 2.2): did not antagonise the activity of any of the insecticides
inhibition at 0.25 ppm (Pyrenophora teres; Pyrenophora teres, Compound II alone, 0.25 ppm): 0%
inhibition at 0.5 ppm (Pyrenophora teres; Pyrenophora teres, Compound II alone, 0.5 ppm): 0%
inhibition at 1 ppm (Pyrenophora teres; Pyrenophora teres, Compound II alone, 1 ppm): 0%
inhibition at 2 ppm (Pyrenophora teres; Pyrenophora teres, Compound II alone, 2 ppm): 0%
inhibition at 4 ppm (Pyrenophora teres; Pyrenophora teres, Compound II alone, 4 ppm): 0%
inhibition at 8 ppm (Pyrenophora teres; Pyrenophora teres, Compound II alone, 8 ppm): 0%
inhibition at 16 ppm (Pyrenophora teres; Pyrenophora teres, Compound II alone, 16 ppm): 0%
inhibition at 32 ppm (Pyrenophora teres; Pyrenophora teres, Compound II alone, 32 ppm): 0%
inhibition at 64 ppm (Pyrenophora teres; Pyrenophora teres, Compound II alone, 64 ppm): 0%
inhibition at 128 ppm (Pyrenophora teres; Pyrenophora teres, Compound II alone, 128 ppm): 3.9%
inhibition at 0.0625 ppm (Fusarium culmorum; Compound II alone, 0.0625 ppm): 1.8%
inhibition at 0.125 ppm (Fusarium culmorum; Compound II alone, 0.125 ppm): 6.5%
inhibition at 0.25 ppm (Fusarium culmorum; Compound II alone, 0.25 ppm): 3.2%
inhibition at 0.5 ppm (Fusarium culmorum; Compound II alone, 0.5 ppm): 1.2%
inhibition at 1 ppm (Fusarium culmorum; Compound II alone, 1 ppm): 0%
inhibition at 2 ppm (Fusarium culmorum; Compound II alone, 2 ppm): 2.5%
inhibition at 4 ppm (Fusarium culmorum; [3]): 1.3%
inhibition at 8 ppm (Fusarium culmorum; [3]): 0%
inhibition at 16 ppm (Fusarium culmorum; Compound II alone, 16 ppm): 0%
inhibition at 32 ppm (Fusarium culmorum; Compound II alone, 32 ppm): 0%
inhibition at 0.125 ppm (Aspergillus parasiticus; Aspergillus parasiticus, Compound II alone, 0.125 ppm): 8.7%
inhibition at 0.25 ppm (Aspergillus parasiticus; Aspergillus parasiticus, Compound II alone, 0.25 ppm): 11.3%
inhibition at 0.5 ppm (Aspergillus parasiticus; Aspergillus parasiticus, Compound II alone, 0.5 ppm): 9.3%
inhibition at 1 ppm (Aspergillus parasiticus; Aspergillus parasiticus, Compound II alone, 1 ppm): 9.6%
inhibition at 2 ppm (Aspergillus parasiticus; Aspergillus parasiticus, Compound II alone, 2 ppm): 0.5%
inhibition at 4 ppm (Aspergillus parasiticus; Aspergillus parasiticus, Compound II alone, 4 ppm): 5.4%
inhibition at 8 ppm (Aspergillus parasiticus; Aspergillus parasiticus, Compound II alone, 8 ppm): 20.5%
inhibition at 16 ppm (Aspergillus parasiticus; Aspergillus parasiticus, Compound II alone, 16 ppm): 22.1%
inhibition at 32 ppm (Aspergillus parasiticus; Aspergillus parasiticus, Compound II alone, 32 ppm): 2%
inhibition at 64 ppm (Aspergillus parasiticus; Aspergillus parasiticus, Compound II alone, 64 ppm): 11.3%
% control (average of 2 reps) (Myzus persicae; [2]): 0%
% control (average of 2 reps) (Myzus persicae; Formula (II) 0.0003 ppm alone): 0%
% control (average of 2 reps) (Myzus persicae; Formula (II) 0.03 ppm alone): 0%
% control (average of 2 reps) (Myzus persicae; Formula (II) 1 ppm alone): 0%
antagonism of the activity of the insecticides (Myzus persicae; mixtures of Table 2.3): did not antagonise the activity of any of the insecticides
synergistic effect on the activity of fungicides ([1]; at some rates): provides a synergistic effect on the activity of fungicides at some rates
fungicidal activity of the compound of formula (II) alone ([1]; in general, Tables 1.1 to 1.5): did not cause any, or only very low levels of fungicidal activity
antagonism of the activity of the fungicides tested ([1]; in general, mixtures of Tables 1.1 to 1.5): did not antagonise the activity of any of the fungicides tested
% control (average of 2 reps) (Heliothis virescens; [2]): 0%
% control (average of 2 reps) (Heliothis virescens; Formula (II) 0.0003 ppm alone): 0%
% control (average of 2 reps) (Heliothis virescens; Formula (II) 0.03 ppm alone): 0%
% control (average of 2 reps) (Heliothis virescens; Formula (II) 1 ppm alone): 0%
antagonism of the activity of the insecticides (Heliothis virescens; mixtures of Table 2.1): did not antagonise the activity of any of the insecticides

Cn1cc(C(=O)Nc2ccccc2C2CC2C2CC2)c(C(F)F)n1 (centres unmarked) [Sedaxane, sedaxane, reference compound]
Sedaxane Inhibition (%) (Pyrenophora teres; 4 ppm): 62.5%
Sedaxane Inhibition (%) (Pyrenophora teres; 8 ppm): 81.2%
Sedaxane Inhibition (%) (Pyrenophora teres; 16 ppm): 82.1%
Sedaxane Inhibition (%) (Pyrenophora teres; 32 ppm): 85.9%
Sedaxane Inhibition (%) (Pyrenophora teres; 64 ppm): 88.1%

abamectin [reference compound]
% control (average of 2 reps) (Tetranychus urticae; Abamectin 0.2 ppm alone): 100%
% control (average of 2 reps) (Heliothis virescens; Abamectin 3 ppm alone): 95%

CC(C)(C)C(O)(CCc1ccc(Cl)cc1)Cn1cncn1 (centres unmarked) [Tebuconazole, tebuconazole, reference compound]
inhibition at 4 ppm (Fusarium culmorum; [4]): 97.1%
inhibition at 8 ppm (Fusarium culmorum; [4]): 90.1%

c1ccc2[nH]c(-c3cscn3)nc2c1 [Thiabendazole, thiabendazole, reference compound]
inhibition at 64 ppm (Fusarium culmorum; [5]): 98.3%
inhibition at 128 ppm (Fusarium culmorum; [5]): 99.4%

CC(c1ccc(C(F)(F)F)nc1)S(C)(=O)=NC#N (centres unmarked) [Sulfoxaflor, sulfoxaflor, reference compound]
% control (average of 2 reps) (Myzus persicae; Sulfoxaflor 0.8 ppm alone): 100%

OC(Cc1ccccc1Cl)(Cn1nc[nH]c1=S)C1(Cl)CC1 (centres unmarked) [Prothioconazole, prothioconazole, reference compound]
inhibition at 64 ppm (Fusarium culmorum; [6]): 97.3%
inhibition at 128 ppm (Fusarium culmorum; [6]): 95%

CN1COCN(Cc2cnc(Cl)s2)/C1=N\[N+](=O)[O-] [Thiamethoxam, thiamethoxam, reference compound]
% control (average of 2 reps) (Myzus persicae; Thiamethoxam 3 ppm alone): 100%

CO/C=C(/C(=O)OC)c1ccccc1Oc1cc(Oc2ccccc2C#N)ncn1 [Azoxystrobin, azoxystrobin, reference compound]
Azoxystrobin Inhibition (%) (Aspergillus parasiticus; 8 ppm): 82.8%
Azoxystrobin Inhibition (%) (Aspergillus parasiticus; 16 ppm): 84.5%
Azoxystrobin Inhibition (%) (Aspergillus parasiticus; 32 ppm): 78.5%
Azoxystrobin Inhibition (%) (Aspergillus parasiticus; 64 ppm): 60.8%

CNC(=O)c1cc(Cl)cc(C)c1NC(=O)c1cc(Br)nn1-c1ncccc1Cl [Chlorantraniliprole, chlorantraniliprole, reference compound]
% control (average of 2 reps) (Tetranychus urticae; Chlorantraniliprole 400 ppm alone): 95%
% control (average of 2 reps) (Heliothis virescens; Chlorantraniliprole 0.4 ppm alone): 90%

CN/C(=N\[N+](=O)[O-])NCc1cnc(Cl)s1 [Clothianidin, clothianidin, reference compound]
% control (average of 2 reps) (Myzus persicae; Clothianidin 3 ppm alone): 100%
% control (average of 2 reps) (Heliothis virescens; Clothianidin 50 ppm alone): 100%

CNC(=O)c1cc(C#N)cc(C)c1NC(=O)c1cc(Br)nn1-c1ncccc1Cl [Cyantraniliprole, cyantraniliprole, reference compound]
% control (average of 2 reps) (Tetranychus urticae; Cyantraniliprole 100 ppm alone): 95%
% control (average of 2 reps) (Heliothis virescens; Cyantraniliprole 0.8 ppm alone): 100%
